The values that follow come from patent US7902181B2, “Compounds 010” (AstraZeneca AB, priority 2007, dated 2011).

Where a name gives a salt, the structure may show the parent alone.

Sequence of Recombinant Human (rh) DPP1 (P53634 25-463): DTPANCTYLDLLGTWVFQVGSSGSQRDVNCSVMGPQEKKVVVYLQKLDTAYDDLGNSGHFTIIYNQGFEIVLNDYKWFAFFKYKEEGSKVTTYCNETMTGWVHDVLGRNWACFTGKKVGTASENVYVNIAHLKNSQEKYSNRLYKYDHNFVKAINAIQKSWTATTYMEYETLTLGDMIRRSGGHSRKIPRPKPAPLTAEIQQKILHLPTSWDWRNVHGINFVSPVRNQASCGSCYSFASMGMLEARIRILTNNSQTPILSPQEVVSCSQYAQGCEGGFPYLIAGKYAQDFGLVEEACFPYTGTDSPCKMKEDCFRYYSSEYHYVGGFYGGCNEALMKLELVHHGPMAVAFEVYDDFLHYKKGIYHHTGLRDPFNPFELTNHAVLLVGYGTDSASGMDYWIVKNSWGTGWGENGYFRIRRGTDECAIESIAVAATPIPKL

The assay concerns the target Recombinant Human (rh) DPP1 (Homo sapiens, UniProt P53634). Briefly: Fluorescence Assay for Recombinant Human (rh) DPP1. The class given is biochemical. The note with it: rhDPP1; substrate H-Gly-Arg-AMC; pH5.0; 30 min pre-incubation, 60 min reaction at 22° C.; highest concentration 10 μM; read-out: DPP1 activity, pIC50 (converted). The method in brief: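 Release of AMC from 100 μM H-Gly-Arg-AMC by rhDPP1 ([…]) in 25 mM piperazine pH 5.0, 50 mM NaCl, 5 mM DTT, 0.01% Triton X-100, 1% DMSO, 22 °C. Inhibitors (12-point half-log, top 10 μM) preincubated 30 min, reaction 60 min, fluorescence at 350/450 nm; pIC50 from 4-parameter logistic fit.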
On to `N#C[C@H](Cc1ccc(-c2ccc(CN)cc2)cc1)NC(=O)[C@@H]1CCCCN1` [Example 36, (2S)-N-[(1S)-2-[4-[4-(Aminomethyl)phenyl]phenyl]-1-cyano-ethyl]piperidine-2-carboxamide trifluoroacetate], for which the IC50 is 251 nM.

Consider `COc1ccc(-c2ccc(C[C@@H](C#N)NC(=O)[C@@H]3CCCCN3)cc2)cc1OC` [Example 32, (2S)-N-[(1S)-1-Cyano-2-[4-(3,4-dimethoxyphenyl)phenyl]ethyl]piperidine-2-carboxamide trifluoroacetate], for which the IC50 is 158 nM.

Regarding `N#C[C@H](Cc1ccc(-c2ccc3sc(=O)n(CCO)c3c2)cc1)NC(=O)[C@@H]1CCCCN1` [Example 54, (S)-N-((S)-1-Cyano-2-(4-(3-(2-hydroxyethyl)-2-oxo-2,3-dihydrobenzo[d]thiazol-5-yl)phenyl)ethyl)piperidine-2-carboxamide], the IC50 was 5.01 nM.

With `CNS(=O)(=O)c1ccc(-c2ccc(C[C@@H](C#N)NC(=O)[C@@H]3CCCCN3)cc2)cc1` [Example 71, (S)-N-((S)-1-Cyano-2-(4′-(N-methylsulfamoyl)biphenyl-4-yl)ethyl)piperidine-2-carboxamide Trifluoroacetate], the IC50 is 6.31 nM.

`N#C[C@@]1(NC(=O)[C@@H]2CCCCN2)C[C@@H]1c1ccc(-c2ccc(S(=O)(=O)N3CCC3)cc2)cc1` [Example 104, (S)-N-((1R,2R)-2-(4′-(Azetidin-1-ylsulfonyl)biphenyl-4-yl)-1-cyanocyclopropyl)piperidine-2-carboxamide Trifluoroacetate]: the IC50 was 79.4 nM.

In the case of `N#Cc1ccc(-c2ccc(C[C@@H](C#N)NC(=O)[C@@H]3CCCCN3)cc2)cc1` [Example 24, (2S)-N-[(1S)-1-Cyano-2-[4-(4-cyanophenyl)phenyl]ethyl]piperidine-2-carboxamide trifluoroacetate], the IC50 was 15.8 nM.

For `Cc1ccccc1-c1ccc(C[C@@H](C#N)NC(=O)[C@@H]2CCCCN2)cc1` [Example 50, (2S)-N-[(1S)-1-Cyano-2-[4-(2-methylphenyl)phenyl]eth-yl]piperidine-2-carboxamide trifluoroacetate], the IC50 was 2000 nM.

As for `N#C[C@H](Cc1ccc(-c2cccc(C(=O)N3CCCCC3)c2)cc1)NC(=O)[C@@H]1CCCCN1` [Example 83, (S)-N-((S)-1-Cyano-2-(3′-(piperidine-1-carbonyl)biphenyl-4-yl)ethyl)piperidine-2-carboxamide Trifluoroacetate], the IC50 was 200 nM.

Take `COc1ccc(-c2ccc(C[C@@H](C#N)NC(=O)[C@@H]3CCCCN3)cc2)c(OC)c1` [Example 33, (2S)-N-[(1S)-1-Cyano-2-[4-(2,4-dimethoxyphenyl)phenyl]ethyl]piperidine-2-carboxamide trifluoroacetate]: the IC50 was 200 nM.

Turning to `COc1ccc(-c2ccc(C[C@@H](C#N)NC(=O)[C@@H]3CCCCN3)cc2)cc1F` [Example 31, (2S)-N-[(1S)-1-Cyano-2-[4-(3-fluoro-4-methoxy-phenyl)phenyl]ethyl]pipe-ridine-2-carboxamide trifluoroacetate], the IC50 was 158 nM.
